Like-named read-outs stand apart in the source and are kept apart here.
How the values were obtained:
Type in all cases: cell-based
S1PR1 = biological target: T1, S1PR1 (Homo sapiens, UniProt P21453); assay: Agonistic activity test on S1P receptors, FLIPR, CHO-K1/Ga15/EDG1 cells
T1 construct: host or cells: CHO-K1 co-expressing Ga15
Protocol: (§1) Instrument: FLIPR™ TETRA (Molecular Device)
Experimental materials: CHO-K1/Ga15/EDG1 cells constructed by GenScript autonomously.
(§2) Sample processing: Before the experiment, the working solution with the corresponding concentration was prepared by diluting with GPCR dilution buffer.
(§3) After 18-20 hours, the cell culture plat was taken out and added with dye working solution, and then the plate was placed in a 37° C./5% CO2 incubator for 1 hour, and finally equilibrated at room temperature for 15 minutes. Positive agonist working solution was added, and RFU values were detected and recorded. […] The positive agonist working fluid was added to the cell culture plate at the 21st second. […] The antagonistic mode detection program, the overall detection time of the instrument was 120 seconds, and positive antagonist working solution was added to the cell culture plate at the 21st second.
(§4) Data processing: Raw data were obtained via ScreenWorks (version 3.1) and saved as *FMD files on the Kingsray computer network system. Data were collected and analyzed using Excel and GraphPad Prism 6 software programs. For each well, the average fluorescence intensity value from 1 to 20 seconds was used as the baseline, and the maximum fluorescence intensity value from 21 to 120 seconds minus the minimum fluorescence intensity value from 21 to 120 seconds was the relative fluorescence intensity value (ARFU), from which the percentage activation or inhibition can be calculated based on the following equation.
(§5) % Activation Rate=(ΔRFUCompound-ΔRFUBackground)/(ΔRFUAgonist control-ΔRFUBackground)×100%
(§6) The data was analyzed using GraphPad Prism 6 with a four-parameter equation to calculate the EC50 and IC50 values. The four-parameter equation was as follows: y=Bottom+(Top-Bottom)/(1+10^((LogEC50/IC50-X)*HillSlope)), wherein X is the Log value of the concentration and Y was the inhibition rate.

S1PR3 = S1PR3 (Homo sapiens, UniProt Q99500); assay: Agonistic activity test on S1P receptors, FLIPR
Protocol: as §1, §2, §3, §4, §5, §6

S1P2 = S1P2 (Homo sapiens, UniProt O95136); assay: Subtype selectivity study, method of Experimental Example 1
Protocol: (§7) Experimental method: CHO-K1/Ga15/EDG1 cells stably expressing EDG1 receptor were cultured in a 10 cm culture dish in a 37° C./5% CO2incubator, and digested when the confluence rate reached 80%-85%. The cells in collected cell suspension were inoculated into 384 microtiter plates at appropriate density, and then placed in a 37° C./5% CO2 incubator and continue to incubate for at least 18 hours before using for experiments. After 18-20 hours, the cell culture plat was taken out and added with dye working solution, and then the plate was placed in a 37° C./5% CO2 incubator for 1 hour, and finally equilibrated at room temperature for 15 minutes. Positive agonist working solution was added, and RFU values were detected and recorded. The 384 microplates, cell plates and tip box with positive agonist working solution were placed into FLIPRTM TETRA and the agonist mode assay program was run with an overall assay time of 120 seconds. The positive agonist working fluid was added to the cell culture plate at the 21st second. 384 microplate, cell plate and gun head box containing the positive antagonist working fluid were put into the FLIPRTM TETRA. The antagonistic mode detection program, the overall detection time of the instrument was 120 seconds, and positive antagonist working solution was added to the cell culture plate at the 21st second. Data processing: Raw data were obtained via ScreenWorks (version 3.1) and saved as *FMD files on the […] computer network system. Data were collected and analyzed using Excel and GraphPad Prism 6 software programs. […] The four-parameter equation was as follows: y=Bottom+(Top-Bottom)/(1+10^((LogEC50/IC50-X)*HillSlope)), wherein X is the Log value of the concentration and Y was the inhibition rate. The S1P receptor selectivity was tested for different subtypes using the method described in Experimental Example 1.

S1P4 = biological target: T2, S1P4 (Homo sapiens, UniProt O95977); assay: as above
T2 sequence (O95977 1-384): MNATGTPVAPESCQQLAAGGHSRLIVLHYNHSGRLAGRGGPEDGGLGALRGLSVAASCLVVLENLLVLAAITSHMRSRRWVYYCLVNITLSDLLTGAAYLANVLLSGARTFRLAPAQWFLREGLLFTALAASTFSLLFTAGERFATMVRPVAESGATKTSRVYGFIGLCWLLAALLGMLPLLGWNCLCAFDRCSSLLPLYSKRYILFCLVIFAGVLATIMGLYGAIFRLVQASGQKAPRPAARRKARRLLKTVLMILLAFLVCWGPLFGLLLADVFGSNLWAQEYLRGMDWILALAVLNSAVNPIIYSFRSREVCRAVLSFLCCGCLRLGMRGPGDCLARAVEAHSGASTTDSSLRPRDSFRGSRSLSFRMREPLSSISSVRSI
Protocol: as §7

S1P5 = S1P5 (Homo sapiens, UniProt Q9H228); assay: as above
Protocol: as §7

[1] = FLIPR agonist mode, read-out: S1PR3 EC50
[2] = CHO-K1/Ga15/EDG1 cells, FLIPR agonist mode, read-out: S1PR1 EC50
[3] = subtype selectivity study, read-out: S1P3 EC50

T1 sequence (P21453 whole entry): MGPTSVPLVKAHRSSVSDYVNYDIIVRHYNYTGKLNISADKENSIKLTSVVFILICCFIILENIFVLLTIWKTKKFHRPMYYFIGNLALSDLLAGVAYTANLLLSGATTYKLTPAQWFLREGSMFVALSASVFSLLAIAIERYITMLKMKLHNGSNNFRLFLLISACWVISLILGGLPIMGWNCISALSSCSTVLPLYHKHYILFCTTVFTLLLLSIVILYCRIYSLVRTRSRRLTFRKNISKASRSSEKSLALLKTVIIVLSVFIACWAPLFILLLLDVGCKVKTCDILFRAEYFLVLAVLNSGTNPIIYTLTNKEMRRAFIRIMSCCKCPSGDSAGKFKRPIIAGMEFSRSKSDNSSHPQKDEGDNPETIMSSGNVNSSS
S1PR3, sequence (Q99500 whole entry, species assumed): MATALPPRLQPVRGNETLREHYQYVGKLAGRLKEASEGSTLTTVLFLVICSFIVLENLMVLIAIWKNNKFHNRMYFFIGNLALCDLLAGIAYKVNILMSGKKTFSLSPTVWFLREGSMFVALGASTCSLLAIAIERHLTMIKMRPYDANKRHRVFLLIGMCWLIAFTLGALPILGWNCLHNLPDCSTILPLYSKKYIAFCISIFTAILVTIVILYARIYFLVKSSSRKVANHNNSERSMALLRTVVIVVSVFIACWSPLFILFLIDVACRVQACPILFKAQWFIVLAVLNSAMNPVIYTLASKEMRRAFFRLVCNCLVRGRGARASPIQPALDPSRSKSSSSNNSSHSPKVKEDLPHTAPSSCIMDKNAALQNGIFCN
S1P5, sequence (Q9H228 whole entry, species assumed): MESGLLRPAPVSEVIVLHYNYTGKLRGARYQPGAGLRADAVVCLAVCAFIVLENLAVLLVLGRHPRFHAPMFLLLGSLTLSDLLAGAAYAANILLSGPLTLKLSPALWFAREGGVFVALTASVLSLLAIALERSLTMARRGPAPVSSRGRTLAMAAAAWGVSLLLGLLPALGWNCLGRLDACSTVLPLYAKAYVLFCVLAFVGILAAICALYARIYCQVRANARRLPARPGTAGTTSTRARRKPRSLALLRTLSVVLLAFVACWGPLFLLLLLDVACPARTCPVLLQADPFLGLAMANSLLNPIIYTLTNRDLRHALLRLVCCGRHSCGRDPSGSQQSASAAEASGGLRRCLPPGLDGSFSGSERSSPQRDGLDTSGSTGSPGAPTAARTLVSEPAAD
S1P2, sequence (O95136 whole entry, species assumed): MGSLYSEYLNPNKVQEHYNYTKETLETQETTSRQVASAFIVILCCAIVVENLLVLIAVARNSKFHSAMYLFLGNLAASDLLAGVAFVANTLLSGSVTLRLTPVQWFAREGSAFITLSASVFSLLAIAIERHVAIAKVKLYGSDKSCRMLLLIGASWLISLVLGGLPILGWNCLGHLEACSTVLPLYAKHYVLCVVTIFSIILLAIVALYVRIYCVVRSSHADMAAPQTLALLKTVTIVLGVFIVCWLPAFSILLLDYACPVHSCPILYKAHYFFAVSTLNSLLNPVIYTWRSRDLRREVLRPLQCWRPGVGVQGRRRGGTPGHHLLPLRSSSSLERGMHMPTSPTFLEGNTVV

## Cn1c(-c2nc(-c3ccc(CN4CC(C(=O)O)C4)c4ccccc34)no2)cc2ccccc21 [Compound A37, 1-((4-(5-(1-methyl-1H-indole-2-yl)-1,2,4-oxadiazol-3-yl)naphthalen-1-yl)methyl) azetidine-3-carboxylic acid hydrochloric acid]
S1PR1; CHO-K1/Ga15/EDG1 cells, FLIPR agonist mode, cells printed in μM, read-out: S1PR1 EC50
  EC50: > 10 µM
S1PR3; [1]
  EC50: > 10000 nM

## O=C(O)C1CN(Cc2ccc(-c3noc(/C=C/c4ccccc4)n3)c3ccccc23)C1 [Compound A38, (E)-1-((4-(5-styryl-1,2,4-oxadiazol-3-yl)naphthalen-1-yl)methyl) azetidine-3-carboxylic acid hydrochloric acid]
S1PR1; [2]
  EC50: 1.42 µM
S1PR3; [1]
  EC50: > 10000 nM

## O=C(O)C1CN(Cc2ccc(-c3noc(C4CCCCC4)n3)c3ccccc23)C1 [Compound A39, 1-((4-(5-cyclohexyl-1,2,4-oxadiazol-3-yl)naphthalen-1-yl)methyl) azetidine-3-carboxylic acid hydrochloric acid]
S1PR1; [2]
  EC50: 0.831 µM
S1PR3; [1]
  EC50: > 10000 nM

## CC(C)Oc1ccc(-c2nc(-c3cccc4c3CC[C@@H]4NCCO)no2)cc1C#N [Ozanimod]
S1PR3; [1]
  EC50: > 10000 nM
S1PR3; [3]
  EC50: 2620 nM
S1P2
  EC50: > 10000 nM
S1P4
  EC50: > 10000 nM
S1P5
  EC50: 10.7 nM

## CCc1cc(/C(C)=N/OCc2ccc(C3CCCCC3)c(C(F)(F)F)c2)ccc1CN1CC(C(=O)O)C1 [Siponmod, reference compound]
S1PR1; [2]
  EC50: 0.547 µM
S1PR1; subtype selectivity study, read-out: S1P1 EC50
  EC50: 0.547 µM
S1PR3; [1]
  EC50: > 10000 nM
S1PR3; [3]
  EC50: > 1000 nM
S1P2
  EC50: > 10000 nM
S1P4
  EC50: 750 nM
S1P5
  EC50: 0.98 nM
